Results from ChEMBL document CHEMBL1148958, “Antibacterial activity of naphthoquinones and triterpenoids from Euclea natalensis root bark” (J Nat Prod, 2004).
Active and inactive are the calls of the source. The rule behind the calls is not given here.

Legend:
Format in all cases: functional, organism-based
[1] = test system: Mycobacterium tuberculosis; assay: Antimycobacterial activity against Mycobacterium tuberculosis H37Rv at 0.006 mg/ml by rapid radiometric method
Bacillus pumilus [2] = assay: Antibacterial activity against Bacillus pumilus ATCC 27142 at 0.1 mg/ml by agar plate method
Enterococcus faecalis [3] = assay: Antibacterial activity against Streptococcus faecalis at 0.01 mg/ml by agar plate method
Pseudomonas aeruginosa = assay: Antibacterial activity against Pseudomonas aeruginosa ATCC 27853 at 0.05 mg/ml by agar plate method
Klebsiella pneumoniae = assay: Antibacterial activity against Klebsiella pneumoniae ATCC 10031 at 0.01 mg/ml by agar plate method
Staphylococcus aureus [4] = assay: Antibacterial activity against Staphylococcus aureus ATCC 25923 at 0.01 mg/ml by agar plate method
Bacillus cereus = assay: Antibacterial activity against Bacillus cereus at 0.01 mg/ml by agar plate method
[5] = test system: Mycobacterium tuberculosis; assay: Antimycobacterial activity against Mycobacterium tuberculosis H37Rv at 0.004 mg/ml by rapid radiometric method
Bacillus subtilis [6] = assay: Antibacterial activity against Bacillus subtilis ATCC 6633 at 0.01 mg/ml by agar plate method
Enterobacter cloacae = assay: Antibacterial activity against Enterobacter cloacae ATCC 13047 at 0.01 mg/ml by agar plate method
Pantoea agglomerans = assay: Antibacterial activity against Pantoea agglomerans ATCC 27155 at 0.01 mg/ml by agar plate method
Escherichia coli = assay: Antibacterial activity against Escherichia coli ATCC 25922 at 0.01 mg/ml by agar plate method
Bacillus pumilus [7] = assay: Antibacterial activity against Bacillus pumilus ATCC 27142 at 0.01 mg/ml by agar plate method
Serratia marcescens = assay: Antibacterial activity against Serratia marcescens ATCC 13880 at 0.1 mg/ml by agar plate method
Staphylococcus aureus [8] = assay: Antibacterial activity against Staphylococcus aureus ATCC 25923 at 0.1 mg/ml by agar plate method
[9] = test system: Mycobacterium tuberculosis; assay: Antimycobacterial activity against Mycobacterium tuberculosis H37Rv at 0.1 mg/ml by rapid radiometric method
Bacillus subtilis [10] = assay: Antibacterial activity against Bacillus subtilis ATCC 6633 at 0.1 mg/ml by agar plate method
Enterococcus faecalis [11] = assay: Antibacterial activity against Streptococcus faecalis at 0.1 mg/ml by agar plate method

CC[C@@H](CO)NCCN[C@@H](CC)CO
Activity [1]: Active

Cc1cc(O)c2c(c1)C(=O)C[C@H](c1c(C)cc3c(c1O)C(=O)CCC3O)[C@@H]2O (stereo not given in full)
Activity (Bacillus pumilus [2]): inactive

CN[C@@H]1[C@H](O[C@H]2[C@H](O[C@H]3[C@H](O)[C@@H](O)[C@H](N=C(N)N)[C@@H](O)[C@@H]3N=C(N)N)O[C@@H](C)[C@]2(O)C=O)O[C@@H](CO)[C@H](O)[C@H]1O
Activity (Enterococcus faecalis [3]): Active | Activity (Pseudomonas aeruginosa): Active | Activity (Klebsiella pneumoniae): Active | Activity (Staphylococcus aureus [4]): Active | Activity (Bacillus cereus): Active | Activity [5]: Active | Activity (Bacillus subtilis [6]): Active | Activity (Enterobacter cloacae): Active | Activity (Pantoea agglomerans): Active | Activity (Escherichia coli): Active | Activity (Bacillus pumilus [7]): Active | Activity (Serratia marcescens): Active

C=C(C)[C@@H]1CC[C@]2(C)CC[C@]3(C)[C@@H](CC[C@@H]4[C@@]5(C)CC[C@H](OC(=O)/C=C/c6ccc(OC)c(O)c6)C(C)(C)[C@@H]5CC[C@]43C)[C@H]12
Activity (Bacillus pumilus [2]): Active

Cc1cc(O)c2c(c1)[C@H](O)CCC2=O
Activity (Staphylococcus aureus [8]): Active | Activity [9]: Active | Activity (Bacillus subtilis [10]): Active | Activity (Bacillus pumilus [2]): Active | Activity (Enterococcus faecalis [11]): Active
